# Measured values from PubChem BioAssay AID1963835 (Molecular Pharmacology Branch, DTP, NCI, 2024).
# System: 699152-130-R-J1-PDC complex spheroid viability
# Test: Anticancer human tumor 699152-130-R-J1-PDC patient-derived pancreatic carcinoma cell line growth inhibition [POLQ]
# Settings: for IC50: curve of first compound; for viability, T/C: stronger effect = lower value
# Experimental: Multicellular complex tumor spheroid response to Polymerase (POL) inhibitors (novobiocin, ART-558, RP6685) in combination with a variety of drugs and investigational agents in selected tumor cell lines
# The POL inhibitors (novobiocin, ART-558, and RP6685) were evaluated both individually and in combination with standard of care and investigational anticancer small molecules within a complex spheroid model of solid tumors. . Complex spheroids include a stromal component modeled by human endothelial cells (HUVEC) and fibroblasts modeled by human mesenchymal stem cells (MSCs). The concentration ranges selected for each drug and investigational agent were based upon clinically achievable concentrations if the clinical Cmax of the agent was known.
# Compounds. The drugs and investigational agents: novobiocin (NSC847541), ART-558 (NSC835418), RP-6685 (NSC848927), peposertib (NSC802822), ceralasertib (NSC780249), elimusertib (NSC800525), camonsertib (NSC841442), AZD-1390 (NSC803789), olaparib (NSC753686), talazoparib (NSC767125), rucaparib (NSC756644), sotorasib (NSC818433), MRTX-1133 (NSC836407), SN-38 (NSC673596), topotecan (NSC609699), epotoside (NSC141540), doxorubicin (NSC123127), gemcitabine (NSC613327), 5-fluorouracil (NSC19893), paclitaxel (NSC125973), vemurafenib (NSC761431), MSA-2 (NSC828583), SN-011 (NSC837082), adavosertib (NSC754352), prexasertib (NSC758257), carboplatin (NSC241240) and oxaliplatin (NSC266046), were obtained from the National Cancer Institute (NCI) Developmental Therapeutics Program Chemical Repository (21). The FDA-approved anticancer drug set is available from the Developmental Therapeutics Program at https://dtp.cancer.gov/organization/dscb/obtaining/. […] The stock solutions were prepared in dimethyl sulfoxide (DMSO, Sigma-Aldrich, St. Louis, MO, cat. D2650), except for the platinum compounds which were prepared in saline (Quality Biological, Gaithersburg, MD, cat. 114-055-101), at 800-fold the tested concentration and stored at -70 degrees C prior to their use. All drugs and investigational agents were tested over a range starting from a high concentration at or near the clinical Cmax and decreasing in half-log increments. If the clinical Cmax for an agent had not been determined, the highest concentration tested was 10 microM, except for SN-38, which was tested at a high concentration of 1 microM.
# Cell Culture. All cells were maintained in an incubator at 37 degrees C and 5% CO2 with 95% humidity. The PDC lines were cultured according to standard operating procedures established by the NCI PDMR (https://pdmr.cancer.gov). Table 3 of the manuscript, lists the cell lines along with the number of the three cell types plated to form the mct-spheroids and media for tumor cell growth. After thawing, all PDC lines, except 997537-175-T-J1-PDC and 415267-285-R-J2-PDC, were cultured in Matrigel-coated flasks prepared with a working solution of 1X Ham's F-12 nutrient mix, without supplementation (Thermo Fisher Scientific, cat. 11765054), 100 U/mL penicillin-streptomycin (Thermo Fisher Scientific, cat. 15140122), and 2.5% Matrigel (Corning Inc., Corning, NY, cat. 354248) for the first three passages. The two PDC lines 997537-175-T-J1-PDC and 415267-285-R-J2-PDC were cultured on uncoated flasks. The 857933-349-R-J2-PDC line was cultured in 6C/Colon 1B media containing advanced DMEM/F-12 (Thermo Fisher Scientific, cat. 12634028), 10 mM HEPES (Thermo Fisher Scientific, cat. 15630080), 1X GlutaMAX supplement (Thermo Fisher Scientific, cat. 35050061), 0.1 mg/mL primocin (InvivoGen, San Diego, CA, cat. ant-pm-2), 10% defined fetal bovine serum, heat inactivated (HyClone Laboratories Inc., Logan, UT, cat. SH30070.03HI), 50% L-WRN conditioned media (ATCC, cat. CRL-3276), 1.25 mM N-Acetyl-L-cysteine (Sigma-Aldrich, cat. A9165), 10 mM nicotinamide (Sigma-Aldrich, cat. N0636), 1X B-27 supplement (Thermo Fisher Scientific, cat. 17504044), 1X N-2 supplement (Thermo Fisher Scientific, cat. […]
# [1] = second compound 0.0316 µM, first compound 0.0316 µM
# [2] = second compound 0.0316 µM, first compound 0.1 µM
# [3] = second compound 0.0316 µM, first compound 0.316 µM
# [4] = second compound 0.0316 µM, first compound 1 µM
# [5] = second compound 0.0316 µM, first compound 3.16 µM
# [6] = second compound 0.0316 µM, first compound 10 µM
# [7] = second compound 0.1 µM, first compound 0.0316 µM
# [8] = second compound 0.1 µM, first compound 0.1 µM
# [9] = second compound 0.1 µM, first compound 0.316 µM
# [10] = second compound 0.1 µM, first compound 1 µM
# [11] = second compound 0.1 µM, first compound 3.16 µM
# [12] = second compound 0.1 µM, first compound 10 µM
# [13] = second compound 0.316 µM, first compound 0.0316 µM
# [14] = second compound 0.316 µM, first compound 0.1 µM
# [15] = second compound 0.316 µM, first compound 0.316 µM
# [16] = second compound 0.316 µM, first compound 1 µM
# [17] = second compound 0.316 µM, first compound 3.16 µM
# [18] = second compound 0.316 µM, first compound 10 µM
# [19] = second compound 1 µM, first compound 0.0316 µM
# [20] = second compound 1 µM, first compound 0.1 µM
# [21] = second compound 1 µM, first compound 0.316 µM
# [22] = second compound 1 µM, first compound 1 µM
# [23] = second compound 1 µM, first compound 3.16 µM
# [24] = second compound 1 µM, first compound 10 µM
# [25] = second compound 3.16 µM, first compound 0.0316 µM
# [26] = second compound 3.16 µM, first compound 0.1 µM
# [27] = second compound 3.16 µM, first compound 0.316 µM
# [28] = second compound 3.16 µM, first compound 1 µM
# [29] = second compound 3.16 µM, first compound 3.16 µM
# [30] = second compound 3.16 µM, first compound 10 µM
# [31] = second compound 10 µM, first compound 0.0316 µM
# [32] = second compound 10 µM, first compound 0.1 µM
# [33] = second compound 10 µM, first compound 0.316 µM
# [34] = second compound 10 µM, first compound 1 µM
# [35] = second compound 10 µM, first compound 3.16 µM
# [36] = second compound 10 µM, first compound 10 µM
# 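Also: spheroids exposed to agents for 7 days before viability reading.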
# 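For viability, T/C in this document: percent of DMSO vehicle control viability so 100% = vehicle and 0% = no viable signal.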
smiles,measurement,setting,value
COc1cc(C2c3cc4c(cc3C(OC3OC5COC(C)OC5C(O)C3O)C3COC(=O)C23)OCO4)cc(OC)c1O (centres undefined) + COC1C(OC(N)=O)C(O)C(Oc2ccc3c(O)c(NC(=O)c4ccc(O)c(CC=C(C)C)c4)c(=O)oc3c2C)OC1(C)C,IC50,second compound 0.0316 µM,4010 nM
same,IC50,second compound 0.1 µM,3170 nM
same,IC50,second compound 0.316 µM,4050 nM
same,IC50,second compound 1 µM,2510 nM
same,IC50,second compound 3.16 µM,4610 nM
same,IC50,second compound 10 µM,3040 nM
same,"viability, T/C",[1],92.1%
same,"viability, T/C",[2],99.5%
same,"viability, T/C",[3],66.4%
same,"viability, T/C",[4],72.5%
same,"viability, T/C",[5],51.3%
same,"viability, T/C",[6],40.2%
same,"viability, T/C",[7],83.9%
same,"viability, T/C",[8],94%
same,"viability, T/C",[9],71.1%
same,"viability, T/C",[10],61.1%
same,"viability, T/C",[11],54.3%
same,"viability, T/C",[12],38.2%
same,"viability, T/C",[13],99.5%
same,"viability, T/C",[14],80.4%
same,"viability, T/C",[15],74.4%
same,"viability, T/C",[16],70.8%
same,"viability, T/C",[17],46.8%
same,"viability, T/C",[18],42.7%
same,"viability, T/C",[19],94.5%
same,"viability, T/C",[20],87.8%
same,"viability, T/C",[21],75%
same,"viability, T/C",[22],60.4%
same,"viability, T/C",[23],47.7%
same,"viability, T/C",[24],38.4%
same,"viability, T/C",[25],93%
same,"viability, T/C",[26],86.2%
same,"viability, T/C",[27],75.3%
same,"viability, T/C",[28],66.7%
same,"viability, T/C",[29],49.7%
same,"viability, T/C",[30],46%
same,"viability, T/C",[31],87.3%
same,"viability, T/C",[32],85.6%
same,"viability, T/C",[33],78.5%
same,"viability, T/C",[34],62.6%
same,"viability, T/C",[35],50.8%
same,"viability, T/C",[36],40.6%
COc1cccc2c1C(=O)c1c(O)c3c(c(O)c1C2=O)CC(O)(C(=O)CO)CC3OC1CC(N)C(O)C(C)O1 (centres undefined) + COC1C(OC(N)=O)C(O)C(Oc2ccc3c(O)c(NC(=O)c4ccc(O)c(CC=C(C)C)c4)c(=O)oc3c2C)OC1(C)C,IC50,second compound 0.0316 µM,284 nM
same,IC50,second compound 0.1 µM,235 nM
same,IC50,second compound 0.316 µM,244 nM
same,IC50,second compound 1 µM,225 nM
same,IC50,second compound 3.16 µM,300 nM
same,IC50,second compound 10 µM,304 nM
same,"viability, T/C",[1],82.1%
same,"viability, T/C",[2],92.9%
same,"viability, T/C",[3],43.7%
same,"viability, T/C",[4],24.3%
same,"viability, T/C",[5],3.71%
same,"viability, T/C",[6],9.4%
same,"viability, T/C",[7],79%
same,"viability, T/C",[8],86.8%
same,"viability, T/C",[9],38.5%
same,"viability, T/C",[10],27%
same,"viability, T/C",[11],3.59%
same,"viability, T/C",[12],13.3%
same,"viability, T/C",[13],66.8%
same,"viability, T/C",[14],97.2%
same,"viability, T/C",[15],40.7%
same,"viability, T/C",[16],26.1%
same,"viability, T/C",[17],2.4%
same,"viability, T/C",[18],10.4%
same,"viability, T/C",[19],69.7%
same,"viability, T/C",[20],96.7%
same,"viability, T/C",[21],35.9%
same,"viability, T/C",[22],27.5%
same,"viability, T/C",[23],2.69%
same,"viability, T/C",[24],12.1%
same,"viability, T/C",[25],73%
same,"viability, T/C",[26],88.1%
same,"viability, T/C",[27],41.5%
same,"viability, T/C",[28],28%
same,"viability, T/C",[29],3.59%
same,"viability, T/C",[30],10.6%
same,"viability, T/C",[31],76%
same,"viability, T/C",[32],95.2%
same,"viability, T/C",[33],48.8%
same,"viability, T/C",[34],21.6%
same,"viability, T/C",[35],6.39%
same,"viability, T/C",[36],13.2%
